{"source": "paper PMC10938764", "about": "(Journal of Nanobiotechnology, 2024)", "key": {"[1]": {"tested_on": "IAPs in CT26 cells", "experiment": "Intracellular IAPs expression by western blot", "assay_type": "cell-based, mouse", "settings": "48 h"}, "[2]": {"tested_on": "CT26 colon tumor-bearing mice", "description": "(§2) Antitumor efficacy was assessed by measuring tumor volumes that are calculated as the largest diameter × the smallest diameter^2 × 0.53. To analyze the increase of tumor-infiltrating lymphocytes by antitumor immune response, tumor tissues were collected from mice on day 13 after treatment, and single cells were isolated from tumor tissues using a tumor dissociation kit. Following single cell counting, the cells were incubated with FcBlock for 10 min to avoid non-specific antibody binding. Then, multi-parameter staining was performed at 4 °C for 50 min to identify the following populations within the tumor tissues: (i) CRT-positive cancer cells (CD45^−CRT^+), (ii) mature DCs (CD11c^+CD40^+CD86^+), (iii) cytotoxic T cells (CD45^+CD3^+CD8^+) and (iv) regulatory T lymphocytes (Tregs; CD45^+CD3^+CD4^+CD25^+)."}, "[3]": {"tested_on": "CT26 cells co-cultured with bone marrow-derived macrophages (BMDMs)", "experiment": "Co-culture assay: phagocytosis of treated CT26 cells by BMDMs", "settings": "CT26 treated 2 µM (DOX contents) 48 h, pHrodo labeled; co-cultured 2 h with BMDMs; confocal imaging", "description": "For these analyses, bone marrow cells were collected from 5-week-old male BALB/C mice and cultured with differentiation media containing M-CSF (20 ng/mL) for 7 days, followed by labeling with CellTracker Green. […] Then, both cells were co-cultured at 37 C for 2 h, and the phagocytosis of cancer cells was observed using a CLSM."}, "[4]": {"tested_on": "cancer, normal and immune cells (CT26, 4T1, H9C2, HDF, M0 and M1 macrophages, DCs, T cells)", "experiment": "Cytotoxicity study (CCK-8), all cell types", "settings": "read-out: IC50 values in all the cell types (span); CCK-8, 48 h, concentrations based on DOX contents", "description": "Briefly, 5 × 10^3 cells were seeded in 96-well cell culture plates and cultured at 37 C for 24 h. […] Finally, 20 μl Cell Counting Kit-8 (CCK-8) solution was added and then further incubated for 20 min. The cell viability was measured using a UV/Vis microplate reader."}, "[5]": {"tested_on": "CT26 colon tumor-bearing mice", "experiment": "In vivo antitumor efficacy", "description": "as §2"}, "[6]": {"tested_on": "CT26 cells", "experiment": "Cellular uptake and nuclear localization of DOX fluorescence (confocal)", "settings": "both naive or Z-FA-FMK-treated CT26 cells; 2 µM, 48 h", "description": "The cells were then washed with DPBS, fixed with 4% paraformaldehyde for 10 min, and stained with 4ʹ,6-diamidino-2-phenylindole (DAPI) for 5 min. […] The cellular uptake of each drug in different cell lines were quantified using flow cytometer (CytoFLEX, BECKMAN COULTER, USA)."}, "[7]": {"experiment": "Drug release profile from dialysis membranes", "assay_type": "physicochemical", "settings": "very fast release"}, "[8]": {"tested_on": "CT26 tumor tissues", "experiment": "Antitumor immune response in tumor tissues (flow cytometry)", "assay_type": "in vivo, mice", "settings": "day 13 after treatment, 3 mg/kg DOX dose once every three days", "description": "as §2"}, "[9]": {"tested_on": "IAPs", "settings": "cited from earlier work", "source_text": "(§1) First, the cathepsin B-cleavable SMAC-P, SMAC-P-FRRG ([…]), was conjugated to a DOX through one-step EDC/NHS reaction, resulting in SMAC-P-FRRG-DOX (Fig. 1a and Additional file 1: Figure S1)."}, "[10]": {"tested_on": "MMP-9", "settings": "cited from earlier work", "source_text": "as §1"}, "[11]": {"tested_on": "cathepsin D", "settings": "cited from earlier work", "source_text": "as §1"}, "[12]": {"tested_on": "cathepsin E", "settings": "cited from earlier work", "source_text": "as §1"}, "[13]": {"tested_on": "cathepsin L", "settings": "cited from earlier work", "source_text": "as §1"}, "[14]": {"tested_on": "caspase-3", "settings": "cited from earlier work", "source_text": "as §1"}, "[15]": {"experiment": "Size distribution and zeta potential by zeta-sizer (DLS)", "assay_type": "physicochemical", "settings": "Zetasizer, 1 mg/ml; saline or D.W (Figure S3)"}, "[16]": {"experiment": "Particle stability (particle size over time) in saline, mouse plasma or serum", "assay_type": "physicochemical", "protocol": "The inset pictures indicate representative images of Aposomes in mouse serum conditions. g Release profiles of free DOX, DOXIL and Aposomes. […] As a control, SMAC-P-FRRG-DOX in MES buffer in the absence of cathepsin B was analyzed using an HPLC system."}}, "note": "Ends that are not written are not given here.", "data": [{"molecule": "COc1cccc2c1C(=O)c1c(O)c3c(c(O)c1C2=O)C[C@@](O)(C(=O)CO)C[C@@H]3O[C@H]1C[C@H](N)[C@H](O)[C@H](C)O1.Cl", "note": "[free DOX, Doxorubicin hydrochloride]", "values": [{"measurement": "intracellular IAPs expression levels", "setting": "[1]", "result": "significantly upregulated"}, {"measurement": "mice died within 13 days", "setting": "[2]; 3 mg/kg DOX dose i.v. once every three days", "result": "4 out of 5"}, {"measurement": "body weight loss and tissue damage in major organs", "setting": "[2]; 3 mg/kg DOX dose once every three days, H and E of major organs", "result": "significant body weight loss along with extensive tissue damages"}, {"measurement": "phagocytosis of CT26 cells by BMDMs", "setting": "[3]", "result": "2.1 ± 0.21", "unit": "%"}, {"measurement": "IC50", "setting": "[4]", "result": "3 to 380", "unit": "nM"}, {"measurement": "median survival / survival of mice", "setting": "[5]; 3 mg/kg DOX dose once every three days", "result": 14, "unit": "days"}, {"measurement": "tumor volume on day 14", "setting": "[5]; i.v. 3 mg/kg DOX dose once every three days, n = 5, mean ± SD", "result": "556.2 ± 149.82", "unit": "mm^3"}, {"measurement": "free DOX fluorescence detected in the nuclei", "setting": "[6]", "result": "more than 90%"}, {"measurement": "time of release from dialysis membranes", "setting": "[7]", "result": "≤ 6", "unit": "h"}, {"measurement": "percentage of CRT-positive tumor cells (CD45−CRT+) within the tumor tissues", "setting": "[8]", "result": "57.67 ± 0.91", "unit": "%"}]}, {"molecule": "AVPIAQ", "values": [{"measurement": "IAP antagonism compared to AVPIAQK, AVPIA and AVPI", "setting": "[9]", "result": "potent activity for IAP antagonism compared to other sequences"}]}, {"molecule": "AVPIAQFR [peptide released from SMAC-P-FRRG-DOX by cathepsin B]", "values": [{"measurement": "IAPs antagonism activity of cathepsin B cleavage product", "setting": "[9]", "result": "comparable IAPs antagonism activity to AVPIAQ"}]}, {"molecule": "AVPIAQFRRG [SMAC-P-FRRG-DOX, prodrug of SMAC mimetic peptide (AVPIAQ), cathepsin B-cleavable peptide (FRRG) and doxorubicin]", "values": [{"measurement": "cleavage by MMP-9", "setting": "[10]", "result": "not cleaved"}, {"measurement": "cleavage by cathepsin D", "setting": "[11]", "result": "not cleaved"}, {"measurement": "cleavage by cathepsin E", "setting": "[12]", "result": "not cleaved"}, {"measurement": "cleavage by cathepsin L", "setting": "[13]", "result": "not cleaved"}, {"measurement": "cleavage by caspase-3", "setting": "[14]", "result": "not cleaved"}, {"measurement": "zeta potential", "setting": "[15]", "result": "14.9 ± 0.814", "unit": "mV"}, {"measurement": "particle stability in mouse plasma", "setting": "[16]; mouse plasma, 1 mg/ml, up to 5 days, particle size", "result": "remarkable aggregation after 2 days"}, {"measurement": "particle stability in mouse serum", "setting": "[16]; mouse serum, as worded in Conclusions", "result": "significant aggregation from 48 h"}]}]}
